# Laboratory results from the kinase profiling compilation of Christmann-Franck et al. (2016).
# Values joined by “and” are separate entries in the source; they are usually repeats but may differ in a detail not shown here. Identical values can stand only once.
# Key:
# Test in all cases: radiometric filter-binding kinase assay, Kinase HotSpot
# Conditions in all cases: compound 0.5 µM; ATP 10 µM
# CLK1 (human) = CLK1 (human) (UniProt P49759)
# TNK2 (human) = TNK2 (human) (UniProt Q07912)
# MYLK (human) = MYLK (human) (UniProt Q15746)
# PRKCB2 (human) = PRKCB2 (human) (UniProt P05771)
# ULK2 (human) = ULK2 (human) (UniProt Q8IYT8)
# NEK6 (human) = NEK6 (human) (UniProt Q9HC98)
# PTK2 (human) = PTK2 (human) (UniProt Q05397)
# CHEK1 (human) = CHEK1 (human) (UniProt O14757)
# PDGFRB (human) = PDGFRB (human) (UniProt P09619)
# FGR (human) = FGR (human) (UniProt P09769)
# FES (human) = FES (human) (UniProt P07332)
# PKN1 (human) = PKN1 (human) (UniProt Q16512)
# MATK (human) = MATK (human) (UniProt P42679)
# HIPK4 (human) = HIPK4 (human) (UniProt Q8NE63)
# CSNK1G2 (human) = CSNK1G2 (human) (UniProt P78368)
# CDK6 CCND1 (human) = CDK6 CCND1 (human) (UniProt Q00534+P24385)
# CDK4 CCND1 (human) = CDK4 CCND1 (human) (UniProt P24385+P11802)
# MELK (human) = MELK (human) (UniProt Q14680)
# CAMK2D (human) = CAMK2D (human) (UniProt Q13557)
# TEC (human) = TEC (human) (UniProt P42680)
# ACVR1 (human) = ACVR1 (human) (UniProt Q04771)
# WNK2 (human) = WNK2 (human) (UniProt Q9Y3S1)
# MERTK (human) = MERTK (human) (UniProt Q12866)
# RPS6KB1 (human) = RPS6KB1 (human) (UniProt P23443)
# EPHA3 (human) = EPHA3 (human) (UniProt P29320)
# LTK (human) = LTK (human) (UniProt P29376)
# CDK3 CCNE1 (human) = CDK3 CCNE1 (human) (UniProt Q00526+P24864)
# PRKG1 (human) = PRKG1 (human) (UniProt Q13976)
# CHUK (human) = CHUK (human) (UniProt O15111)
# HCK (human) = HCK (human) (UniProt P08631)
# MAP4K4 (human) = MAP4K4 (human) (UniProt O95819)
# PRKCA (human) = PRKCA (human) (UniProt P17252)
# BLK (human) = BLK (human) (UniProt P51451)
# MAPK9 (human) = MAPK9 (human) (UniProt P45984)
# LCK (human) = LCK (human) (UniProt P06239)
# MAP3K9 (human) = MAP3K9 (human) (UniProt P80192)
# RPS6KA1 KD1 KD2 (human) = RPS6KA1 KD1 KD2 (human) (UniProt Q15418)
# RPS6KA6 KD1 KD2 (human) = RPS6KA6 KD1 KD2 (human) (UniProt Q9UK32)
# NLK (human) = NLK (human) (UniProt Q9UBE8)
# FYN (human) = FYN (human) (UniProt P06241)
# MAPK10 (human) = MAPK10 (human) (UniProt P53779)
# CLK2 (human) = CLK2 (human) (UniProt P49760)
# CAMK2D (human), sequence (Q13557 whole entry, looked up): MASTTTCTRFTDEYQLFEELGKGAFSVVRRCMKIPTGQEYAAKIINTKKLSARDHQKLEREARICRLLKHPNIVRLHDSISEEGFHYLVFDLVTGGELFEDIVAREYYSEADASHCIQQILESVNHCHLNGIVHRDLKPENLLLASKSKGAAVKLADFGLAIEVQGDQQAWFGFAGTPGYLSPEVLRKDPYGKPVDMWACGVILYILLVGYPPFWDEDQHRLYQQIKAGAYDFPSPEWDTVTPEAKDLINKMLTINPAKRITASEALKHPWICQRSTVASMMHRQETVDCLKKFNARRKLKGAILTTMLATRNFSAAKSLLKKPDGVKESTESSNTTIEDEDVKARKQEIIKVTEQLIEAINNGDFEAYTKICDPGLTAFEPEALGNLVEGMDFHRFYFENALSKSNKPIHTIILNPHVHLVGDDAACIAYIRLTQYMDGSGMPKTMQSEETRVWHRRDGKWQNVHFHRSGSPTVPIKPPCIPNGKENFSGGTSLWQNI
# HIPK4 (human), sequence (Q8NE63 whole entry, looked up): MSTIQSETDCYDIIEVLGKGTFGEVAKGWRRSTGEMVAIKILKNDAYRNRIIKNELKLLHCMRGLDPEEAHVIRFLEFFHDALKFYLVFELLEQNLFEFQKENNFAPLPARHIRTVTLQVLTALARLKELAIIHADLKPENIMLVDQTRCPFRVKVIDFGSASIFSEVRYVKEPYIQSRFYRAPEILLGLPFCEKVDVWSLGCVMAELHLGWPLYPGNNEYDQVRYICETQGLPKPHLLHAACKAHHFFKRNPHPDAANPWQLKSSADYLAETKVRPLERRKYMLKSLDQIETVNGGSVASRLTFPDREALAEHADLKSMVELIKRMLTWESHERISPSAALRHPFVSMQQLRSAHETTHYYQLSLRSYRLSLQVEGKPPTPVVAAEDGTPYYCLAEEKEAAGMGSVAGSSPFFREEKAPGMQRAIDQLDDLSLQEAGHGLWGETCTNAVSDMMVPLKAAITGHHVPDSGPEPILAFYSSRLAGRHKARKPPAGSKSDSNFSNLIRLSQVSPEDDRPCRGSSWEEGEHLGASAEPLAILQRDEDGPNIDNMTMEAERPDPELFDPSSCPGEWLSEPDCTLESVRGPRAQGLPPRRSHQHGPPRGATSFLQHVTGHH
# PTK2 (human), sequence (Q05397 whole entry, looked up): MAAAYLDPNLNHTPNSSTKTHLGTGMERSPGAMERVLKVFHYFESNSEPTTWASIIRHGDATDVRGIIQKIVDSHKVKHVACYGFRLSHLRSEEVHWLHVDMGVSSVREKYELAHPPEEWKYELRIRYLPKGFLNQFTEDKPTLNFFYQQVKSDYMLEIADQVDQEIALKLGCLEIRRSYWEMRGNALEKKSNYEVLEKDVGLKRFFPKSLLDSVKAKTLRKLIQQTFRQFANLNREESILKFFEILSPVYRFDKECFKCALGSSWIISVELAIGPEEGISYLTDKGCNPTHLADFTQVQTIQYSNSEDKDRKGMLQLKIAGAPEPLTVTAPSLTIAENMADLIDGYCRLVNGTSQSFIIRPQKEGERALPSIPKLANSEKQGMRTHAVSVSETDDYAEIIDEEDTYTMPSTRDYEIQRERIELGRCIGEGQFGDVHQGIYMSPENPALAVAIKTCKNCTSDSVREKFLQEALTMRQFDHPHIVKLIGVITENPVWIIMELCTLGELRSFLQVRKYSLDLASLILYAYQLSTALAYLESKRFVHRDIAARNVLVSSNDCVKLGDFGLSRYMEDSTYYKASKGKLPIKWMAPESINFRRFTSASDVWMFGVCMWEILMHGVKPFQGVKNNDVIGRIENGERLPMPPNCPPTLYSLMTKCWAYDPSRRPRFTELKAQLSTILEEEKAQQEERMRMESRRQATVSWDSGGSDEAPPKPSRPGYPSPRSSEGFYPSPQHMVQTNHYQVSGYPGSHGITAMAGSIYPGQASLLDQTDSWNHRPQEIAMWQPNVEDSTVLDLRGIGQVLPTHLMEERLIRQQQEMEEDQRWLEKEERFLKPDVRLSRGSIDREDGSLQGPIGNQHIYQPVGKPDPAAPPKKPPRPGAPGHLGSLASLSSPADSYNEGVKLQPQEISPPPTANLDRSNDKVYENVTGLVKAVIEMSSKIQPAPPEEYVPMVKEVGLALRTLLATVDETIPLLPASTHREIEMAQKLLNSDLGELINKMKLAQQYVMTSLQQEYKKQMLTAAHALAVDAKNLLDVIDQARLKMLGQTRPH
# RPS6KA1 KD1 KD2 (human), sequence (Q15418 whole entry, looked up): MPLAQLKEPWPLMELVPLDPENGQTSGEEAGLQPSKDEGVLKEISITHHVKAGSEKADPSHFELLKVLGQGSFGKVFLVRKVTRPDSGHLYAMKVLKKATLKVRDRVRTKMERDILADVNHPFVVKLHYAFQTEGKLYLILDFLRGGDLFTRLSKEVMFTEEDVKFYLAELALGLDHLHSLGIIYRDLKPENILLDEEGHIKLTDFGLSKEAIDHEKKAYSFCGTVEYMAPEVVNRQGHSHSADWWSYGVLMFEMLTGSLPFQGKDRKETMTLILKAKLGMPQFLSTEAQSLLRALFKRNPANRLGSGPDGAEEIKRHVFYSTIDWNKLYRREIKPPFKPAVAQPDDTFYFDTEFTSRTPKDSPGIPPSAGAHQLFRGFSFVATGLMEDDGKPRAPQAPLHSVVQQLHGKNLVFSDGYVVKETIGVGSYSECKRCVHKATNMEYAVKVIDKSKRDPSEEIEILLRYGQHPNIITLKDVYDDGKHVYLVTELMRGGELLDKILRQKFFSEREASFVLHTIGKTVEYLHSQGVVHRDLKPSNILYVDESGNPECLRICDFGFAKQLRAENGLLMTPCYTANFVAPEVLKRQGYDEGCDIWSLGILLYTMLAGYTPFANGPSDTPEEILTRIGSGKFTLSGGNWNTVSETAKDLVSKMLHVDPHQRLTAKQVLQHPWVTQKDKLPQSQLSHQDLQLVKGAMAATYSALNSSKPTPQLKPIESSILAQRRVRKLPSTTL
# EPHA3 (human), sequence (P29320 whole entry, looked up): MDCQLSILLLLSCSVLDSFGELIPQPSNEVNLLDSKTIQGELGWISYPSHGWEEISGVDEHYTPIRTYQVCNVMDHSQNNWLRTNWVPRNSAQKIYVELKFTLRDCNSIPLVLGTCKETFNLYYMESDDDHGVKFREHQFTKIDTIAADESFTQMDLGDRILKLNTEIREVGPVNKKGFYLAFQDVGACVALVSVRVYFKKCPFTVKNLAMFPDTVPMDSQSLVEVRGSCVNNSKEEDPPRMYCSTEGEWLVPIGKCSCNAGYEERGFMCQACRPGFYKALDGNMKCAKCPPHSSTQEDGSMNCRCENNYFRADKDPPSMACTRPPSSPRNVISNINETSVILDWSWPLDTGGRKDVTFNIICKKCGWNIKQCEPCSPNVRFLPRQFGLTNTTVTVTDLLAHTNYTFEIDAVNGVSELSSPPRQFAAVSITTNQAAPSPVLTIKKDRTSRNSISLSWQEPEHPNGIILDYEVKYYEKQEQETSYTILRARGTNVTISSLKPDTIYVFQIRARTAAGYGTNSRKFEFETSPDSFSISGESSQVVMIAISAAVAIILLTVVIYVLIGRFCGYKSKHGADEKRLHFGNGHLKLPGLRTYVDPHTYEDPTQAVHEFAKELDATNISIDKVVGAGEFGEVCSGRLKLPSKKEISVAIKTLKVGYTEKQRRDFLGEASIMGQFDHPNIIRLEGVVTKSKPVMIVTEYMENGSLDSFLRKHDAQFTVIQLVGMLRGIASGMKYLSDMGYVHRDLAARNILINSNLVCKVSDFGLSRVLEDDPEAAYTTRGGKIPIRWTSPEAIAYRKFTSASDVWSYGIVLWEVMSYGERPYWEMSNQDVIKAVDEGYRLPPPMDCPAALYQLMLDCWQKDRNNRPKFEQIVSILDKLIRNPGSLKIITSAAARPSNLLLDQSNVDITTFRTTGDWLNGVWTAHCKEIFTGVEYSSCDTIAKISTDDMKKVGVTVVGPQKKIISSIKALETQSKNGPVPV
# MAP3K9 (human), sequence (P80192 whole entry, looked up): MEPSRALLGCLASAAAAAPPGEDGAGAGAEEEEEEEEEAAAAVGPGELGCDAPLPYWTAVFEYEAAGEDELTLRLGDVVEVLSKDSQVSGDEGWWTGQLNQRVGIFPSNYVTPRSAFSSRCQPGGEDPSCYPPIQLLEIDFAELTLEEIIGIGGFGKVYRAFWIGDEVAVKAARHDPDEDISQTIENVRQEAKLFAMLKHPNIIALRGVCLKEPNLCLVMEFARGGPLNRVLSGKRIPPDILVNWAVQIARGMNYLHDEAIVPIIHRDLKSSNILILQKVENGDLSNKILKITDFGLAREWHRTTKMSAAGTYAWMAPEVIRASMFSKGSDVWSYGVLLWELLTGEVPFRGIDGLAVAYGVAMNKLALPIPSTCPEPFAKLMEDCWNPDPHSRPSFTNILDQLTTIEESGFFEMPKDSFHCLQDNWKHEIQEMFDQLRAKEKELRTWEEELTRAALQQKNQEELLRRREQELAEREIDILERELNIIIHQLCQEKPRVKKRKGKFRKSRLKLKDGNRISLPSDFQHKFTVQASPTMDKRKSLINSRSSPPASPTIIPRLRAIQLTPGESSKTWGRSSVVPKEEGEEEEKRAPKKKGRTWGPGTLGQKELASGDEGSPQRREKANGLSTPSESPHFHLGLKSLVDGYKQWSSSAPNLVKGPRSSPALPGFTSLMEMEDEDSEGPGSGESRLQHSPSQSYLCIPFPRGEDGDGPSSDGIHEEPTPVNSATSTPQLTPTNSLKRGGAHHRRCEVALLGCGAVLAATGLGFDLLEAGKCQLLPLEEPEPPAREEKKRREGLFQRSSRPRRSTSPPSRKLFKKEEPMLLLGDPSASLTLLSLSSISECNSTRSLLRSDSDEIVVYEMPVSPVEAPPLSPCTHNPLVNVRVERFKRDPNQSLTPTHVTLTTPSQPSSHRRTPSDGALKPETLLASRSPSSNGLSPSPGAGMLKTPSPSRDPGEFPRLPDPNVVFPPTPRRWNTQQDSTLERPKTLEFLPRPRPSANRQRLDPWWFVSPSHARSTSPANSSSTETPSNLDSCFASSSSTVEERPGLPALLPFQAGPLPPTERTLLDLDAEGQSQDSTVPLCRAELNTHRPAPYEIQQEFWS
structure (smiles),measurement,setting,value
O=C(Nc1cccc(Nc2cc(Nc3cccc(C(F)(F)F)c3)ncn2)c1)C1CC1,residual activity,CLK1 (human),107%
same,residual activity,TNK2 (human),98.7%
same,residual activity,MYLK (human),99%
same,residual activity,PRKCB2 (human),107%
same,residual activity,ULK2 (human),102%
same,residual activity,NEK6 (human),99.2%
same,residual activity,PTK2 (human),105%
same,residual activity,CHEK1 (human),105%
same,residual activity,PDGFRB (human),101%
same,residual activity,FGR (human),96.4%
same,residual activity,FES (human),101%
same,residual activity,PKN1 (human),98.9%
same,residual activity,MATK (human),96.1%
same,residual activity,HIPK4 (human),101%
same,residual activity,CSNK1G2 (human),99.1%
same,residual activity,CDK6 CCND1 (human),99.1%
same,residual activity,CDK4 CCND1 (human),103%
same,residual activity,MELK (human),104%
same,residual activity,CAMK2D (human),101%
same,residual activity,TEC (human),115%
same,residual activity,ACVR1 (human),103%
same,residual activity,WNK2 (human),109%
same,residual activity,MERTK (human),97.3%
same,residual activity,RPS6KB1 (human),98%
same,residual activity,EPHA3 (human),98.4%
same,residual activity,LTK (human),96.8%
same,residual activity,CDK3 CCNE1 (human),94.8%
same,residual activity,PRKG1 (human),90.6% and 96.4%
same,residual activity,CHUK (human),95.6%
same,residual activity,HCK (human),99%
same,residual activity,MAP4K4 (human),102%
same,residual activity,PRKCA (human),101%
same,residual activity,BLK (human),101%
same,residual activity,MAPK9 (human),98.2%
same,residual activity,LCK (human),100%
same,residual activity,MAP3K9 (human),107%
same,residual activity,RPS6KA1 KD1 KD2 (human),95.1%
same,residual activity,RPS6KA6 KD1 KD2 (human),96.6%
same,residual activity,NLK (human),95.9%
same,residual activity,FYN (human),100%
same,residual activity,MAPK10 (human),83.4%
same,residual activity,CLK2 (human),97.3%
CCN(CC)CCCCN1c2ccccc2Oc2ccc(Cl)cc21,residual activity,CLK1 (human),110%
same,residual activity,TNK2 (human),94.7%
same,residual activity,MYLK (human),97%
same,residual activity,PRKCB2 (human),102%
same,residual activity,ULK2 (human),103%
same,residual activity,NEK6 (human),107%
same,residual activity,PTK2 (human),108%
same,residual activity,CHEK1 (human),101%
same,residual activity,PDGFRB (human),103%
same,residual activity,FGR (human),101%
same,residual activity,FES (human),99.8%
same,residual activity,PKN1 (human),89.6%
same,residual activity,MATK (human),99.9%
same,residual activity,HIPK4 (human),99.2%
same,residual activity,CSNK1G2 (human),103%
same,residual activity,CDK6 CCND1 (human),98%
same,residual activity,CDK4 CCND1 (human),107%
same,residual activity,MELK (human),95.3%
same,residual activity,CAMK2D (human),105%
same,residual activity,TEC (human),157%
same,residual activity,ACVR1 (human),101%
same,residual activity,WNK2 (human),119%
same,residual activity,MERTK (human),95.5%
same,residual activity,RPS6KB1 (human),97.7%
same,residual activity,EPHA3 (human),101%
same,residual activity,LTK (human),98.4%
same,residual activity,CDK3 CCNE1 (human),90.3%
same,residual activity,PRKG1 (human),91.3% and 98.8%
same,residual activity,CHUK (human),98.8%
same,residual activity,HCK (human),105%
same,residual activity,MAP4K4 (human),104%
same,residual activity,PRKCA (human),83%
same,residual activity,BLK (human),106%
same,residual activity,MAPK9 (human),105%
same,residual activity,LCK (human),94.6%
same,residual activity,MAP3K9 (human),95.7%
same,residual activity,RPS6KA1 KD1 KD2 (human),97.5%
same,residual activity,RPS6KA6 KD1 KD2 (human),109%
same,residual activity,NLK (human),101%
same,residual activity,FYN (human),107%
same,residual activity,MAPK10 (human),104%
same,residual activity,CLK2 (human),105%
Nc1nnc2[nH]c3ccccc3nc1-2,residual activity,CLK1 (human),99.2%
same,residual activity,TNK2 (human),101%
same,residual activity,MYLK (human),93.6%
same,residual activity,PRKCB2 (human),88.5%
same,residual activity,ULK2 (human),95.9%
same,residual activity,NEK6 (human),95.5%
same,residual activity,PTK2 (human),94.6%
same,residual activity,CHEK1 (human),187%
same,residual activity,PDGFRB (human),98.1%
same,residual activity,FGR (human),96.3%
same,residual activity,FES (human),96.8%
same,residual activity,PKN1 (human),92%
same,residual activity,MATK (human),91.9%
same,residual activity,HIPK4 (human),95.8%
same,residual activity,CSNK1G2 (human),93.8%
same,residual activity,CDK6 CCND1 (human),105%
same,residual activity,CDK4 CCND1 (human),92.4%
same,residual activity,MELK (human),92.9%
same,residual activity,CAMK2D (human),89.4%
same,residual activity,TEC (human),108%
same,residual activity,ACVR1 (human),94.3%
same,residual activity,WNK2 (human),95.9%
same,residual activity,MERTK (human),92.9%
same,residual activity,RPS6KB1 (human),99.8%
same,residual activity,EPHA3 (human),95.2%
same,residual activity,LTK (human),89.4%
same,residual activity,CDK3 CCNE1 (human),93.1%
same,residual activity,PRKG1 (human),93% and 97.7%
same,residual activity,CHUK (human),85.9%
same,residual activity,HCK (human),98.6%
same,residual activity,MAP4K4 (human),76.2%
same,residual activity,PRKCA (human),71%
same,residual activity,BLK (human),96.6%
same,residual activity,MAPK9 (human),103%
same,residual activity,LCK (human),93.6%
same,residual activity,MAP3K9 (human),97.7%
same,residual activity,RPS6KA1 KD1 KD2 (human),97.9%
same,residual activity,RPS6KA6 KD1 KD2 (human),94.2%
same,residual activity,NLK (human),95.2%
same,residual activity,FYN (human),96.1%
same,residual activity,MAPK10 (human),92.1%
same,residual activity,CLK2 (human),96.1%
Cn1nc2c3c(cccc31)C(=O)c1ccccc1-2,residual activity,CLK1 (human),92.7%
same,residual activity,TNK2 (human),83.3%
same,residual activity,MYLK (human),77.4%
same,residual activity,PRKCB2 (human),97.8%
same,residual activity,ULK2 (human),109%
same,residual activity,NEK6 (human),108%
same,residual activity,PTK2 (human),92.8%
same,residual activity,CHEK1 (human),93.7%
same,residual activity,PDGFRB (human),100%
same,residual activity,FGR (human),93.4%
same,residual activity,FES (human),94.4%
same,residual activity,PKN1 (human),101%
same,residual activity,MATK (human),88%
same,residual activity,HIPK4 (human),102%
same,residual activity,CSNK1G2 (human),91.5%
same,residual activity,CDK6 CCND1 (human),88%
same,residual activity,CDK4 CCND1 (human),98.9%
same,residual activity,MELK (human),83.6%
same,residual activity,CAMK2D (human),90%
same,residual activity,TEC (human),102%
same,residual activity,ACVR1 (human),110%
same,residual activity,WNK2 (human),104%
same,residual activity,MERTK (human),95.9%
same,residual activity,RPS6KB1 (human),96.3%
same,residual activity,EPHA3 (human),93.5%
same,residual activity,LTK (human),86.7%
same,residual activity,CDK3 CCNE1 (human),87.5%
same,residual activity,PRKG1 (human),93.7% and 96%
same,residual activity,CHUK (human),97%
same,residual activity,HCK (human),94.6%
same,residual activity,MAP4K4 (human),85.1%
same,residual activity,PRKCA (human),96.1%
same,residual activity,BLK (human),106%
same,residual activity,MAPK9 (human),85.2%
same,residual activity,LCK (human),99.2%
same,residual activity,MAP3K9 (human),99.4%
same,residual activity,RPS6KA1 KD1 KD2 (human),93.7%
same,residual activity,RPS6KA6 KD1 KD2 (human),90.4%
same,residual activity,NLK (human),100%
same,residual activity,FYN (human),93.8%
same,residual activity,MAPK10 (human),97.3%
same,residual activity,CLK2 (human),94.5%
